Laboratory results published in patent publication US20170152241A9, “BICYCLIC DERIVATIVE CONTAINING PYRIMIDINE RING, AND PREPARATION METHOD THEREFOR” (YUHAN CORPORATION, priority 2013, published 2017).
Structures can show the parent of a compound that is named as a salt.

Target: T1, human 5-HT4(a) (Homo sapiens, UniProt Q13639)
T1 construct: host or cells: GeneBlAzer HTR4-CRE-bla CHO-K1 cells
Experiment: Evaluation of agonistic activity in CHO-K1 cells expressing human 5-HT4(a) (GeneBlAzer HTR4-CRE-bla, beta-lactamase reporter)
Format: cell-based
Details: 5 hours incubation, 8 concentrations
Protocol: Evaluation of Agonistic Activity in CHO-K1 Cells Expressing Human 5-HT4(a)
As CHO-K1 cells stably expressing human 5-HT4(a), we used the GeneBlAzer HTR4-CRE-bla CHO-K1 cells (Invitrogen corp.). The cells were cultured in DMEM medium supplemented with 10% bovine fetal serum (FBS), 25 mM HEPES (pH 7.4), 600 μg/ml Hygromycin B, 0.1 mM non-essential amino acids, 100 unit/ml penicillin and 100 μg/ml streptomycin under the condition of 37° C. and 5% CO2. Subcultures were performed three times per a week, each being at less than 80% confluence. At the previous day before treating test compounds, the cells were collected by using 0.5% trypsin/EDTA, and then diluted with a DMEM supplemented with 1% FBS, 25 mM HEPES and 0.1 mM non-essential amino acids into 3.125×10^5 cells/ml. 32 μl of the diluted cells were added into 384-well plate (10,000 cells/well) and then incubated overnight. The compounds to be used as a test material and a control drug were prepared as 500× of the various final treating concentrations of the drug with 100% DMSO, and then treated to the medium after diluting them to 100-folds to be 1% of the final DMSO concentration equally. After culturing overnight, 8 μl of the medium having 1% of DMSO was added into the cell-free control well and the non-stimulating control well, respectively. 8 μl of the control drug or the test material (which had been prepared by diluting 100-folds with the medium as mentioned in the above) having 1% of DMSO, were added to the respective remaining wells. After culturing in an incubator for 5 hours, the wells of the 384-plate were treated with the substrate solution (8 μl/well) prepared according to the vendor's instruction (i.e. Invitrogen's instruction), and then incubated in the dark room for additional 2 hours. Agonistic activities on 5-HT4 receptor were evaluated, on the basis of fluorescent values of the cleavage-products, which is generated cAMP-concentration dependently per equal time by beta-lactamase. After exciting to 410 nm of wavelength by using Genios Pro Fluorescence Detector, we measured the fluorescence values at two emission wavelengths (first wavelength: 465 nm, second wavelength: 535 nm). Data were analyzed on the basis of the ratio of fluorescence intensities of each well at the respective wavelengths. For all plates, the concentrations-response curve (1 pM-100 nM) of the control drug (Tegaserod) was included. Each EC50 values of the test compounds were calculated by non-linear regression analysis using GraphPad Prism program, based on the concentration-reactivity values according to 8-different concentrations of the test compounds.

T1 sequence (Q13639 1-387 isoform Q13639-2): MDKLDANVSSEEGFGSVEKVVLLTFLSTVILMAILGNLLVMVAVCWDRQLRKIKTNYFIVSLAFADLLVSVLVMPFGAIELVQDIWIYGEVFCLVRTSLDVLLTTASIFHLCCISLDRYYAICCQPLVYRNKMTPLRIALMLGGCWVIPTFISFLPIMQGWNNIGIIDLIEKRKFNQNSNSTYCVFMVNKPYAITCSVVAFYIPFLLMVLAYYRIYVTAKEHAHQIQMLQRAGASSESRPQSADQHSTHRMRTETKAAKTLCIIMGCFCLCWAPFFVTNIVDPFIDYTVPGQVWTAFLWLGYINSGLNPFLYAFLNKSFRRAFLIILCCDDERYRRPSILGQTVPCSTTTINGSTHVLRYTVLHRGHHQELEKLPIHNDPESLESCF

Compared with `N#Cc1cc(N)cc(Nc2nc(N3CC[C@H](NC(=O)Cc4cccs4)C3)c3ccccc3n2)c1` [Example 37, (S)—N-[1-{2-(3-amino-5-cyanophenylamino)quinazolin-4-yl}pyrrolidin-3-yl]-2-(thiophen-2-yl)acetamide], `CCN[C@H]1CCN(c2nc(Nc3cc(N)cc(C#N)c3)nc3ccccc23)C1` [Example 141, (S)-3-amino-5-([4-{3-(ethylamino)pyrrolidin-1-yl}quinazolin-2-yl]amino)benzonitrile] is 3-fold lower in EC50: 30 pM for the first, 10 pM for the second.

Compared with `Nc1cc(Nc2nc(N3CCC[C@@H](N)C3)c3ncccc3n2)cc(C(F)(F)F)c1` [Example 167, (R)—N^1-{4-(3-aminopiperidin-1-yl)pyrido[3,2-d]pyrimidin-2-yl}-5-trifluoromethyl)benzene-1,3-diamine dihydrochloride], `COc1cccc2c(N3CCC[C@@H](NC(C)=O)C3)nc(Nc3cc(N)cc(C(F)(F)F)c3)nc12` [Example 64, (R)—N-[1-{2-(3-amino-5-trifluoromethylphenylamino)-8-methoxyquinazolin-4-yl}piperidin-3-yl]acetamide] is 3-fold lower in EC50: 90 pM for the first, 30 pM for the second.

`CC(=O)N[C@H]1CCN(c2nc(Nc3cc(N)cc(C#N)c3)nc3c2CCC3)C1` [Example 168, (S)—N-(1-[2-{(3-amino-5-cyanophenyl)amino}-6,7-dihydro-5H-cyclopenta[d]pyrimidin-4-yl]pyrrolidin-3-yl)acetamide hydrochloride] and `CC(=O)N[C@H]1CCN(c2nc(Nc3cc(N)cc(C#N)c3)nc3c2CCCC3)C1` [Example 88, (S)—N-[1-{2-(3-amino-5-cyanophenylamino)-5,6,7,8-tetrahydroquinazolin-4-yl}pyrrolidin-3-yl]acetamide] are the same in EC50: 10 pM for the first, 10 pM for the second.

First: COc1ccc2nc(Nc3cc(N)cc(C(F)(F)F)c3)nc(N3CC[C@H](NC(C)=O)C3)c2c1 [Example 14, (S)—N-{1-(2-[{3-amino-5-(trifluoromethyl)-phenyl}amino]-6-methoxyquinazolin-4-yl)pyrrolidin-3-yl}-acetamide]
Second: COc1cc2nc(Nc3cc(N)cc(C(F)(F)F)c3)nc(N3CC[C@H](NC(C)=O)C3)c2cc1OC [Example 7, (S)—N-{1-(2-[{3-amino-5-(trifluoromethyl)-phenyl}amino]-6,7-dimethoxyquinazolin-4-yl)pyrrolidin-3-yl}acetamide]
The EC50 of the first is 1.5-fold lower: 20 pM for the first, 30 pM for the second.

`COc1ccc2c(N3CC[C@H](NC(C)=O)C3)nc(Nc3cc(N)cc(C#N)c3)nc2c1` [Example 147, (S)—N-(1-[2-{(3-amino-5-cyanophenyl)amino}-7-methoxyquinazolin-4-yl]pyrrolidin-3-yl)acetamide] and `COc1ccc2nc(Nc3cc(N)cc(C#N)c3)nc(N3CCC[C@@H](NC(C)=O)C3)c2c1` [Example 21, (R)—N-(1-[2-{(3-amino-5-cyanophenyl)-amino}-6-methoxyquinazolin-4-yl]piperidin-3-yl)acetamide] are the same in EC50: 10 pM for the first, 10 pM for the second.

Going from `CC(=O)N[C@H]1CCN(c2nc(Nc3cc(N)cc(C#N)c3)nc3cc(C(F)(F)F)ccc23)C1` [Example 28, (S)—N-(1-[2-{(3-amino-5-cyanophenyl)amino}-7-(trifluoromethyl)quinazolin-4-yl]pyrrolidin-3-yl)-acetamide] to `CC(=O)N[C@H]1CCN(c2nc(Nc3cc(N)cc(C#N)c3)nc3cc(F)ccc23)C1` [Example 85, (S)—N-[1-{2-(3-amino-5-cyanophenylamino)-7-fluoroquinazolin-4-yl}pyrrolidin-3-yl]acetamide hydrochloride], the EC50 falls from 390 pM to 40 pM (9.8-fold). The second is the more potent here.

`N#Cc1cc(N)cc(Nc2nc3c(c(N4CC[C@H](N)C4)n2)CCC3)c1` [Example 174, (S)-3-amino-5-[{4-(3-aminopyrrolidin-1-yl)-6,7-dihydro-5H-cyclopenta[d]pyrimidin-2-yl}amino]benzonitrile dihydrochloride] and `N#Cc1cc(N)cc(Nc2nc3c(c(N4CCC[C@@H](N)C4)n2)CCC3)c1` [Example 199, (R)-3-amino-5-[{4-(3-aminopiperidin-1-yl)-6,7-dihydro-5H-cyclopenta[d]pyrimidin-2-yl}amino]benzonitrile dihydrochloride] are the same in EC50: 20 pM for the first, 20 pM for the second.

`CC(=O)N[C@@H]1CCCN(c2nc(Nc3ccc(N)c(C(F)(F)F)c3)nc3c(C)cccc23)C1` [Example 80, (R)—N-(1-[2-{4-amino-3-(trifluoromethyl)phenylamino}-8-methylquinazolin-4-yl]piperidin-3-yl)acetamide hydrochloride] and `CC(=O)N[C@H]1CCN(c2nc(Nc3ccc(Cl)c(N)c3)nc3ccccc23)C1` [Example 133, (S)—N-(1-[2-{(3-amino-4-chlorophenyl)amino}quinazolin-4-yl]pyrrolidin-3-yl)acetamide] are within 1.5-fold of each other in EC50: 40 pM for the first, 30 pM for the second.

`CC(=O)N[C@H]1CCN(c2nc(Nc3cc(N)cc(C#N)c3)nc3cc(Cl)ccc23)C1` [Example 81, (S)—N-[1-{2-(3-amino-5-cyanophenylamino)-7-chloroquinazolin-4-yl}pyrrolidin-3-yl]acetamide hydrochloride] and `CC(C)N[C@H]1CCN(c2nc(Nc3cc(N)cc(C#N)c3)nc3ccccc23)C1` [Example 46, (S)-3-amino-5-[4-{3-(isopropylamino)pyrrolidin-1-yl}quinazolin-2-ylamino]benzonitrile] are within 1.5-fold of each other in EC50: 60 pM for the first, 50 pM for the second.

`CN[C@@H]1CCCN(c2nc(Nc3cc(N)cc(C#N)c3)nc3c2CCC3)C1` [Example 204, (R)-3-amino-5-([4-{3-(methylamino)piperidin-1-yl}-6,7-dihydro-5H-cyclopenta[d]pyrimidin-2-yl]amino)benzonitrile dihydrochloride] and `CCN[C@H]1CCN(c2nc(Nc3cc(N)cc(C#N)c3)nc3c2CCCC3)C1` [Example 105, (S)-3-amino-5-[4-{3-(ethylamino)pyrrolidin-1-yl}-5,6,7,8-tetrahydroquinazolin-2-ylamino]benzonitrile dihydrochloride] are the same in EC50: 10 pM for the first, 10 pM for the second.

Going from `CN[C@H]1CCN(c2nc(Nc3cc(N)cc(C#N)c3)nc3cccc(C)c23)C1` [Example 68, (S)-3-amino-5-[5-methyl-4-{3-(methylamino)pyrrolidin-1-yl}quinazolin-2-ylamino]benzonitrile] to `CCCN[C@H]1CCN(c2nc(Nc3cc(N)cc(C#N)c3)nc3cccnc23)C1` [Example 159, (S)-3-amino-5-([4-{3-(propylamino)pyrrolidin-1-yl}pyrido[3,2-d]pyrimidin-2-yl]amino)benzonitrile dihydrochloride], the EC50 falls from 80 pM to 10 pM (8-fold).

Going from `N#Cc1cc(N)cc(Nc2nc(N3CC[C@H](N)C3)c3ccccc3n2)c1` [Example 31, (S)-3-amino-5-{4-(3-aminopyrrolidin-1-yl)-quinazolin-2-ylamino}benzonitrile dihydrochloride] to `CCCCCN[C@H]1CCN(c2nc(Nc3cc(N)cc(C#N)c3)nc3ccccc23)C1` [Example 41, (S)-3-amino-5-[4-{3-(pentylamino)-pyrrolidin-1-yl}quinazolin-2-ylamino]benzonitrile], the EC50 falls from 30 pM to 2.4 pM (12-fold).

First: CN[C@@H]1CCCN(c2nc(Nc3cc(N)cc(C(F)(F)F)c3)nc3c2CCCC3)C1 [Example 213, (R)—N^1-[4-{3-(methylamino)piperidin-1-yl}-5,6,7,8-tetrahydroquinazolin-2-yl]-5-(trifluoromethyl)benzene-1,3-diamine dihydrochloride]
Second: CNC(=O)[C@@H]1CCCN(c2nc(Nc3cc(N)cc(C(F)(F)F)c3)nc3c2CCCC3)C1 [Example 123, (R)-1-[2-{3-amino-5-(trifluoromethyl)phenylamino}-5,6,7,8-tetrahydroquinazolin-4-yl]-N-methylpiperidine-3-carboxamide]
The EC50 of the first is 1.6-fold higher: 16 pM for the first, 10 pM for the second. The second is the more potent here.

`CCCN[C@H]1CCN(c2nc(Nc3cc(N)cc(C#N)c3)nc3c2CCC3)C1` [Example 184, (S)-3-amino-5-([4-{3-(propylamino)pyrrolidin-1-yl}-6,7-dihydro-5H-cyclopenta[d]pyrimidin-2-yl]amino)benzonitrile dihydrochloride] and `CC(=O)N[C@@H]1CCCN(c2nc(Nc3ccc(N)c([N+](=O)[O-])c3)nc3c2CCC3)C1` [Example 198, (R)—N-(1-[2-{(4-amino-3-nitrophenyl)amino}-6,7-dihydro-5H-cyclopenta[d]pyrimidin-4-yl]piperidin-3-yl}acetamide hydrochloride] are the same in EC50: 10 pM for the first, 10 pM for the second.

For `CNC(=O)[C@@H]1CCCN(c2nc(Nc3ccc(N)c([N+](=O)[O-])c3)nc3c2CCC3)C1` [Example 224, (R)-1-[2-{(4-amino-3-nitrophenyl)amino}-6,7-dihydro-5H-cyclopenta[d]pyrimidin-4-yl]-N-methylpiperidine-3-carboxamide hydrochloride], the EC50 was 8.7 pM.
